In PMC9645662, “Dual role of an essential HtrA2/Omi protease in the human malaria parasite: Maintenance of mitochondrial homeostasis and induction of apoptosis-like cell death under cellular stress” (PLOS Pathogens, 2022) one finds IC50 data, which are given here for one compound.

In this assay the target is T1, PfHtrA2 (HtrA2/Omi serine protease) (Plasmodium falciparum, UniProt A0A143ZXD4).
T1 construct: gene PF3D7_0812200; protease domain (135–290 aa; HtrA2-protease), histidine-tagged, expressed in E. coli
T1 sequence (A0A143ZXD4 135-290): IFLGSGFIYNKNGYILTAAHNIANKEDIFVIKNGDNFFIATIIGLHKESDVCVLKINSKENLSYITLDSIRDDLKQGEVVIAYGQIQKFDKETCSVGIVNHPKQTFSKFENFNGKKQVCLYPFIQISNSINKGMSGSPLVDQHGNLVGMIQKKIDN
As to the kind of experiment: fluorogenic protease activity assay of the recombinant protease domain, concentration-dependent inhibition. It counts as biochemical.

SMILES strings stand for the structures.

By IC50 is commonly meant the concentration needed to halve the response being measured.

In the case of `O=C1C(=Cc2ccc(-c3ccccc3[N+](=O)[O-])o2)C(=O)N(c2ccccc2)C(=S)N1c1ccccc1` [ucf-101], the IC50 is 8.1 µM.
